Results as given in patent US20230085307A1, “PYRIDAZINONE COMPOUND AND HERBICIDE” (NISSAN CHEMICAL CORPORATION, priority 2019, published 2023).

Legend:
[1] = system: lambsquarters; assay: Test Example 4: herbicidal effect by soil treatment (Table 19, symbol O); type: in vivo, lambsquarters (Chenopodium album); details: amount of applied herbicide 320 g/ha
In short: (§1)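 Emulsion of test compound, water-diluted to predetermined amount, sprayed on soil after sowing (seed depth ~1.5 cm, sterilized diluvial soil). Greenhouse, 25–30° C. Effect graded at three weeks post-spray.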

[2] = system: chickweed; assay: Test Example 4: herbicidal effect by soil treatment (Table 19, symbol P); type: in vivo, common chickweed (Stellaria media); details: amount of applied herbicide 320 g/ha
In short: as §1

[3] = system: persian speedwell; assay: Test Example 4: herbicidal effect by soil treatment (Table 19, symbol R); type: in vivo, Persian speedwell (Veronica persica); details: amount of applied herbicide 320 g/ha
In short: as §1

[4] = system: southern crabgrass; assay: Test Example 4: herbicidal effect by soil treatment (Table 19, symbol F); type: in vivo, southern crabgrass (Digitaria ciliaris); details: amount of applied herbicide 320 g/ha
In short: as §1

[5] = system: green foxtail; assay: Test Example 5: herbicidal effect by foliage application, plastic box (Table 20, symbol G); type: in vivo, green foxtail (Setaria viridis); details: foliage application, 320 g/ha, three weeks after application
In short: (§2)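 Post-emergence foliar test in sterilized diluvial soil. Compound applied as water-diluted emulsion at a predetermined rate to 14-day-old plants; evaluation at three weeks.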

[6] = system: windgrass; assay: Test Example 4: herbicidal effect by soil treatment (Table 19, symbol L); type: in vivo, windgrass (Apera spica-venti); details: amount of applied herbicide 320 g/ha
In short: as §1

[7] = system: rice flat sedge; assay: Test Example 3: herbicidal effect by foliage application, Wagner pot (Table 18, symbol E); type: in vivo, rice flat sedge (Cyperus iria); details: 320 g/ha
In short: (§3)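 Plants were sown in alluvial soil held under 0.1–0.5 cm standing water and grown 14 days in a greenhouse at 25–30 °C. An emulsifiable formulation, water-diluted to the set dose, was then sprayed onto the foliage, and effects were scored three weeks later using previously defined criteria.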

[8] = system: Italian ryegrass; assay: Test Example 5: herbicidal effect by foliage application, plastic box (Table 20, symbol K); type: in vivo, Italian ryegrass (Lolium multiflorum); details: foliage application, 320 g/ha, three weeks after application
In short: as §2

[9] = system: lambsquarters; assay: Test Example 5: herbicidal effect by foliage application, plastic box (Table 20, symbol O); type: in vivo, lambsquarters (Chenopodium album); details: foliage application, 320 g/ha, three weeks after application
In short: as §2

[10] = system: wild oat; assay: Test Example 4: herbicidal effect by soil treatment (Table 19, symbol I); type: in vivo, wild oat (Avena fatua); details: amount of applied herbicide 320 g/ha
In short: as §1

[11] = system: redroot pigweed; assay: Test Example 5: herbicidal effect by foliage application, plastic box (Table 20, symbol N); type: in vivo, redroot pigweed (Amaranthus retroflexus); details: foliage application, 320 g/ha, three weeks after application
In short: as §2

[12] = system: false cleavers; assay: Test Example 4: herbicidal effect by soil treatment (Table 19, symbol Q); type: in vivo, false cleavers (Galium spurium); details: amount of applied herbicide 320 g/ha
In short: as §1

[13] = system: Chinese sprangletop; assay: Test Example 3: herbicidal effect by foliage application, Wagner pot (Table 18, symbol D); type: in vivo, chinese sprangletop (Leptochloa chinensis); details: 320 g/ha
In short: as §3

[14] = system: wild oat; assay: Test Example 5: herbicidal effect by foliage application, plastic box (Table 20, symbol I); type: in vivo, wild oat (Avena fatua); details: foliage application, 320 g/ha, three weeks after application
In short: as §2

[15] = system: redroot pigweed; assay: Test Example 4: herbicidal effect by soil treatment (Table 19, symbol N); type: in vivo, redroot pigweed (Amaranthus retroflexus); details: amount of applied herbicide 320 g/ha
In short: as §1

[16] = system: false cleavers; assay: Test Example 5: herbicidal effect by foliage application, plastic box (Table 20, symbol Q); type: in vivo, false cleavers (Galium spurium); details: foliage application, 320 g/ha, three weeks after application
In short: as §2

[17] = system: persian speedwell; assay: Test Example 5: herbicidal effect by foliage application, plastic box (Table 20, symbol R); type: in vivo, Persian speedwell (Veronica persica); details: foliage application, 320 g/ha, three weeks after application
In short: as §2

[18] = system: blackgrass; assay: Test Example 5: herbicidal effect by foliage application, plastic box (Table 20, symbol J); type: in vivo, blackgrass (Alopecurus myosuroides); details: foliage application, 320 g/ha, three weeks after application
In short: as §2

[19] = system: velvetleaf; assay: Test Example 4: herbicidal effect by soil treatment (Table 19, symbol M); type: in vivo, velvetleaf (Abutilon theophrasti); details: amount of applied herbicide 320 g/ha
In short: as §1

[20] = system: barnyard grass; assay: Test Example 4: herbicidal effect by soil treatment (Table 19, symbol H); type: in vivo, barnyard grass (Echinochloa crus-galli); details: amount of applied herbicide 320 g/ha
In short: as §1

[21] = system: Italian ryegrass; assay: Test Example 4: herbicidal effect by soil treatment (Table 19, symbol K); type: in vivo, Italian ryegrass (Lolium multiflorum); details: amount of applied herbicide 320 g/ha
In short: as §1

[22] = system: chickweed; assay: Test Example 5: herbicidal effect by foliage application, plastic box (Table 20, symbol P); type: in vivo, common chickweed (Stellaria media); details: foliage application, 320 g/ha, three weeks after application
In short: as §2

[23] = system: windgrass; assay: Test Example 5: herbicidal effect by foliage application, plastic box (Table 20, symbol L); type: in vivo, windgrass (Apera spica-venti); details: foliage application, 320 g/ha, three weeks after application
In short: as §2

[24] = system: green foxtail; assay: Test Example 4: herbicidal effect by soil treatment (Table 19, symbol G); type: in vivo, green foxtail (Setaria viridis); details: amount of applied herbicide 320 g/ha
In short: as §1

[25] = system: southern crabgrass; assay: Test Example 5: herbicidal effect by foliage application, plastic box (Table 20, symbol F); type: in vivo, southern crabgrass (Digitaria ciliaris); details: foliage application, 320 g/ha, three weeks after application
In short: as §2

[26] = system: velvetleaf; assay: Test Example 5: herbicidal effect by foliage application, plastic box (Table 20, symbol M); type: in vivo, velvetleaf (Abutilon theophrasti); details: foliage application, 320 g/ha, three weeks after application
In short: as §2

[27] = system: barnyard grass; assay: Test Example 3: herbicidal effect by foliage application, Wagner pot (Table 18, symbol H); type: in vivo, barnyard grass (Echinochloa crus-galli); details: 320 g/ha
In short: as §3

[28] = system: barnyard grass; assay: Test Example 5: herbicidal effect by foliage application, plastic box (Table 20, symbol H); type: in vivo, barnyard grass (Echinochloa crus-galli); details: foliage application, 320 g/ha, three weeks after application
In short: as §2

[29] = system: blackgrass; assay: Test Example 4: herbicidal effect by soil treatment (Table 19, symbol J); type: in vivo, blackgrass (Alopecurus myosuroides); details: amount of applied herbicide 320 g/ha
In short: as §1

Q: Which results are given for `COc1ccc2c(-c3c(O)c(C)nn(C)c3=O)c(-c3ccccc3)sc2c1` [3-061]?
A: O: lambsquarters, herbicidal effect grade [1]: 2 (Herbicidal rate of 20% or more and less than 40%); P: chickweed, herbicidal effect grade [2]: 3 (Herbicidal rate of 40% or more and less than 70%); R: persian speedwell, herbicidal effect grade [3]: 4 (Herbicidal rate of 70% or more and less than 90%); F: southern crabgrass, herbicidal effect grade [4]: 0 (Herbicidal rate of 5% or less (almost no effect)); G: green foxtail, herbicidal effect grade [5]: 0 (Herbicidal rate of 5% or less (almost no effect)); L: windgrass, herbicidal effect grade [6]: 0 (Herbicidal rate of 5% or less (almost no effect)); herbicidal effect on rice flat sedge (E) [7]: 5 (Herbicidal rate of 90% or more (almost completely withered)); K: Italian ryegrass, herbicidal effect grade [8]: 3 (Herbicidal rate of 40% or more and less than 70%); O: lambsquarters, herbicidal effect grade [9]: 4 (Herbicidal rate of 70% or more and less than 90%); I: wild oat, herbicidal effect grade [10]: 2 (Herbicidal rate of 20% or more and less than 40%); N: redroot pigweed, herbicidal effect grade [11]: 4 (Herbicidal rate of 70% or more and less than 90%); Q: false cleavers, herbicidal effect grade [12]: 2 (Herbicidal rate of 20% or more and less than 40%); herbicidal effect on Chinese sprangletop (D) [13]: 3 (Herbicidal rate of 40% or more and less than 70%); I: wild oat, herbicidal effect grade [14]: 4 (Herbicidal rate of 70% or more and less than 90%); N: redroot pigweed, herbicidal effect grade [15]: 0 (Herbicidal rate of 5% or less (almost no effect)); Q: false cleavers, herbicidal effect grade [16]: 4 (Herbicidal rate of 70% or more and less than 90%); R: persian speedwell, herbicidal effect grade [17]: 5 (Herbicidal rate of 90% or more (almost completely withered)); J: blackgrass, herbicidal effect grade [18]: 3 (Herbicidal rate of 40% or more and less than 70%); M: velvetleaf, herbicidal effect grade [19]: 0 (Herbicidal rate of 5% or less (almost no effect)); H: barnyard grass, herbicidal effect grade [20]: 3 (Herbicidal rate of 40% or more and less than 70%); K: Italian ryegrass, herbicidal effect grade [21]: 0 (Herbicidal rate of 5% or less (almost no effect)); P: chickweed, herbicidal effect grade [22]: 5 (Herbicidal rate of 90% or more (almost completely withered)); L: windgrass, herbicidal effect grade [23]: 3 (Herbicidal rate of 40% or more and less than 70%); G: green foxtail, herbicidal effect grade [24]: 4 (Herbicidal rate of 70% or more and less than 90%); F: southern crabgrass, herbicidal effect grade [25]: 0 (Herbicidal rate of 5% or less (almost no effect)); M: velvetleaf, herbicidal effect grade [26]: 5 (Herbicidal rate of 90% or more (almost completely withered)); herbicidal effect on barnyard grass (H) [27]: 2 (Herbicidal rate of 20% or more and less than 40%); H: barnyard grass, herbicidal effect grade [28]: 0 (Herbicidal rate of 5% or less (almost no effect))

Q: With `Cc1nn(C)c(=O)c(-c2c(-c3ccccc3C(F)(F)F)sc3ccccc23)c1O` [1-007] as the compound, how does the “herbicidal effect rating, O: lambsquarters” value [1] read?
A: Its value is 0 (Herbicidal rate of 5% or less (almost no effect)).

Q: What about the “herbicidal effect rating, P: chickweed” value [2] of the same compound?
A: Its value is 3 (Herbicidal rate of 40% or more and less than 70%).

Q: What about the “herbicidal effect rating, R: persian speedwell” value [3] of the same compound?
A: Its value is 0 (Herbicidal rate of 5% or less (almost no effect)).

Q: And the “herbicidal effect rating, F: southern crabgrass” value [4]?
A: The value was 0 (Herbicidal rate of 5% or less (almost no effect)).

Q: What about the “herbicidal effect grade, G: green foxtail” value [5] of the same compound?
A: Its value is 5 (Herbicidal rate of 90% or more (almost completely withered)).

Q: What about the “herbicidal effect on E (rice flat sedge), rating 0-5” value [7] of the same compound?
A: The value was 4 (Herbicidal rate of 70% or more and less than 90%).

Q: What about the “herbicidal effect grade, K: Italian ryegrass” value [8] of the same compound?
A: The value was 3 (Herbicidal rate of 40% or more and less than 70%).

Q: And the “herbicidal effect grade, O: lambsquarters” value [9]?
A: The value was 5 (Herbicidal rate of 90% or more (almost completely withered)).

Q: And the “herbicidal effect rating, I: wild oat” value [10]?
A: Its value is 3 (Herbicidal rate of 40% or more and less than 70%).

Q: What about the “herbicidal effect grade, N: redroot pigweed” value [11] of the same compound?
A: The value was 5 (Herbicidal rate of 90% or more (almost completely withered)).

Q: What about the “herbicidal effect rating, Q: false cleavers” value [12] of the same compound?
A: Its value is 0 (Herbicidal rate of 5% or less (almost no effect)).

Q: What about the “herbicidal effect on D (Chinese sprangletop), rating 0-5” value [13] of the same compound?
A: Its value is 5 (Herbicidal rate of 90% or more (almost completely withered)).

Q: What about the “herbicidal effect grade, I: wild oat” value [14] of the same compound?
A: The value was 3 (Herbicidal rate of 40% or more and less than 70%).

Q: What about the “herbicidal effect rating, N: redroot pigweed” value [15] of the same compound?
A: Its value is 0 (Herbicidal rate of 5% or less (almost no effect)).

Q: What about the “herbicidal effect grade, Q: false cleavers” value [16] of the same compound?
A: Its value is 5 (Herbicidal rate of 90% or more (almost completely withered)).

Q: What about the “herbicidal effect grade, R: persian speedwell” value [17] of the same compound?
A: Its value is 5 (Herbicidal rate of 90% or more (almost completely withered)).

Q: What about the “herbicidal effect grade, J: blackgrass” value [18] of the same compound?
A: The value was 0 (Herbicidal rate of 5% or less (almost no effect)).

Q: And the “herbicidal effect rating, M: velvetleaf” value [19]?
A: The value was 0 (Herbicidal rate of 5% or less (almost no effect)).

Q: What about the “herbicidal effect rating, J: blackgrass” value [29] of the same compound?
A: Its value is 0 (Herbicidal rate of 5% or less (almost no effect)).

Q: What about the “herbicidal effect rating, H: barnyard grass” value [20] of the same compound?
A: Its value is 0 (Herbicidal rate of 5% or less (almost no effect)).

Q: What about the “herbicidal effect rating, K: Italian ryegrass” value [21] of the same compound?
A: The value was 0 (Herbicidal rate of 5% or less (almost no effect)).

Q: And the “herbicidal effect grade, P: chickweed” value [22]?
A: The value was 5 (Herbicidal rate of 90% or more (almost completely withered)).

Q: And the “herbicidal effect grade, L: windgrass” value [23]?
A: Its value is 5 (Herbicidal rate of 90% or more (almost completely withered)).

Q: And the “herbicidal effect rating, G: green foxtail” value [24]?
A: Its value is 0 (Herbicidal rate of 5% or less (almost no effect)).

Q: What about the “herbicidal effect grade, F: southern crabgrass” value [25] of the same compound?
A: Its value is 3 (Herbicidal rate of 40% or more and less than 70%).

Q: And the “herbicidal effect grade, M: velvetleaf” value [26]?
A: Its value is 5 (Herbicidal rate of 90% or more (almost completely withered)).

Q: And the “herbicidal effect on H (barnyard grass), rating 0-5” value [27]?
A: The value was 5 (Herbicidal rate of 90% or more (almost completely withered)).

Q: What about the “herbicidal effect grade, H: barnyard grass” value [28] of the same compound?
A: The value was 3 (Herbicidal rate of 40% or more and less than 70%).
